Results: BigSolDB 2.1

NC[C@H]1O[C@H](O[C@H]2[C@H](O)[C@@H](O[C@H]3O[C@H](CO)[C@@H](O)[C@H](N)[C@H]3O)[C@H](N)C[C@@H]2N)[C@H](N)C[C@@H]1O
solubility (mole fraction)
Conditions	283.15 K	288.15 K	293.15 K	294.15 K	298.15 K	303.15 K	308.15 K	313.15 K	318.15 K
in DMF	–	–	0.000144	–	0.000181	0.000249	0.000394	0.000663	0.000942
in DMSO	–	–	–	0.0124	0.014	0.018	0.0236	0.0282	0.0351
in ethanol	0.000436	0.000556	0.000708	–	0.00114	0.00191	0.00243	–	–
in methanol	–	0.000129	0.000133	–	0.000189	0.000284	0.000433	0.000635	–
